{"source": "patent US20150018409A1", "about": "“CHIMERIC POLYPEPTIDES AND THEIR USE” (ADRIACELL S.P.A., priority 2003, published 2015)", "key": {"U2OS cells [1]": {"system": "U2OS cells", "test": "FACS analysis of DNA content / cell cycle distribution", "format": "cell-based, human", "conditions": "for interaction with SCPVUTAT on the cell cycle: simultaneous incubation with SCPVUTAT", "experimental": "The distribution of the various phases of the cell cycle of the protein transduced cells was analysed by FACS analysis. Distribution of the DNA content of the cell populations was detected. 2n represents a diploid DNA equivalent (non replicated; G1 phase), 4n represents the tetraploid DNA equivalent (replicated; G2/M phase). For the FACS analysis the cells were separated employing the DDM mode that allows to estimate DNA content of a single cell. U2OS cells were grown for 24 hours (upper row) or 48 hours (lower row) in the presence of increasing amounts of […] (10 nM, 50 nM, 100 nM) as indicated and with only one addition of proteins; non treated cells (control); cells treated with a nuclease impaired derivative of […] (SC34, 100 nM). All the histograms shown represent a measure of DNA content relative to the cell numbers as indicated only on the upper right panel.\nU2OS cells were incubated with […] (10 nM, panel B), or with H2O2 (10 μM, panelC), or both ([…], 10 nM; H2O2, 10 μM; panel D), or with no agent as a control (panel A). Further treatment cells were analysed in FACS for DNA content; the percentage of the various cell cycle phases are indicated at the bottoms of the individual histograms.\nFinally, to confirm that the DSB's that are produced in vivo also induce perturbations in the cell cycle, DNA content in the various phases of the cell cycle was analysed by Fluorescence Activated Cell Sorting (FACS) after transduction of the proteins of the invention. After the treatment with diverse proteins at various concentrations and during different timepoints, the cells were fixed in 70% ethanol, treated with RNAse A and stained with propidium […].\nThe FACS analysis was done using a FACSCalibur™ (Becton Dickinson) apparatus. The obtained data were evaluated with the CellQuest™ software program package. At least 3×10^4 single events for every sample were analysed in the DDM mode. The statistic analysis of the DNA content distribution during the cell cycle was done with the MODFIT LT™ software program package. A 2N diploid DNA content correspond to cells in the G1 phase of the cell cycle, 4N represents a relative tetraploid DNA content and corresponds to G2 and/or M phase of the cell cycle. An intermediate DNA content represents S phase corresponding to a population actively replicating DNA during the cell cycle and a content that is below diploid 2N represents cells in apoptosis.\nU2OS cells were incubated with 10 nM […] and with 10 μM H2O2 alone or in combination ant the cell cycle profile was analysed by FACS."}, "[2]": {"system": "MRC-5 cells (ATM positive)", "conditions": "SCPVUTAT 100 nM or HU 1 mM", "procedure": "[sequence] dependent Ser^15 phosphorylation of p53. The ATM positive cell-line MRC5 was treated with [sequence] (100 nM, SC) or with hydroxyurea (1 mM, HU) for the time periods as indicated; as a control non treated cells were used (O).\n(§1) P53 phosphorylation on Ser15 in response to [sequence] treatment was assayed in ATM positive or negative cell lines (MRC-5 and AT-5 respectively). For comparison parallel experiments were done with hydroxyurea (HU). […] For this immunoblotting experiments were done with extracts after treatment, by using specific antibodies to a phosphorylated Ser15 in p53 for specific detection."}, "[3]": {"system": "AT-5 cells (ATM negative)", "conditions": "SCPVUTAT 100 nM or HU 1 mM", "procedure": "AT-5 cells, negative for ATM were treated with [sequence]\nas §1"}, "HCT116 (p53(+/+)) cells": {"system": "HCT116 (p53(+/+)) cells", "test": "Cell cycle arrest point: nuclear morphology and immunofluorescence of cyclin B1 and Cdc25C", "format": "cell-based, human", "conditions": "30 hours; SCPVUTAT 100 nM or Taxol 0.2 μg/ml", "experimental": "Microscopic analysis of the HCT116 (p53(+/+)) cells not treated, or treated with […] (100 nM) for 30 hours, or with taxol (0.2 μg/ml). Immunofluorescence analysis was done with primary antibodies specific for cyclin B1 or specific for Cdc25C and coloured with secondary conjugates of FITC (green, cyclinB1) or TRITC (red, Cdc25C).\nMoreover, the initiation of mitosis, i.e. induced with the microtuble blocking agents Nocodazol or Taxol, can be detected by the nuclear activity of the Cdc2 kinase and also by nuclear localisation of Cdc25C. These assays allow to dissect the exact point of cell cycle arrest after […] treatment and this further allows to detect disturbations in this phase of the cell cycle relative to a positive control. Similar experiments are well known in the art also for other phases of the cell cycle. The assay shown in FIG. 7A and the immunofluorescence analysis shown in FIG. 14 show examples for these types of experiments.\nHCT116 (p53(+/+)) not treated, or treated for 30 hours with […] (100 nM), or with Taxol (0.2 μg/ml) were fixated with 3% PFA and treated with specific antibodies to cyclin B1 or for Cdc25C. The immunofluorescence was analysed with the microscope (see FIG. 14) with specific primary antibodies to cyclin B1 conjugated to FITC labelled secondary antibodies (green) or with specific primary antibodies to Cdc25C conjugated to TRITC labelled secondary antibodies (red)."}, "U2OS cells [4]": {"system": "U2OS cells", "test": "Histone H2AX Ser139 phosphorylation, single cell fluorescence microscopy", "format": "cell-based, human", "conditions": "Wortmanin 50 μM with SCPVUTAT 100 nM, 60 minutes", "procedure": "U2OS cells were treated with [sequence] (100 nM, central column) for 60 minutes, in addition treatment was done with Wortmanin (50 μM, WM, right column), or with no agent as a control (left column). After treatment cells were stained with specific antibodies to H2AX-Ser-139 phosphorylated (red) or for Histone 2B (served as a control, green) and analysed on a single cell level by fluorescence microscopy.\nAs another example for a phosphorylation of a substrate of ATM in response to the object of the invention, histone H2AX Ser^139 phosphorylation was analysed. […] U2OS cells were treated for 60 minutes with [sequence], fixed and analysed for histone H2AX Ser^139 phosphorylation. Cells were analysed with a specific antiserum to phospho-Ser 139 on histone H2AX and analysed in the microscope on a single cell basis. As a control histone 2B was analysed."}, "[5]": {"system": "U2OS osteosarcoma cells and IMR90 primary fibroblasts", "test": "Protein transduction of the chimeric proteins (immunoblot and immunofluorescence with PvuII antibody)", "format": "cell-based, human", "experimental": "For a comparison aliquots of the supernatants of the cell culture taken before extract preparation were included in the analysis (upper panel, SUPERNATANT).\nIn addition DNA costaining was obtained with propidium J after RNAse A digest (red, upper panel).\nThe transduction capacity of the chimeric proteins was assayed in U2OS osteosarcoma cells and in the IMR90 primary fibroblasts cells. The cells were grown in DMEM containing 10% FCS and treated with the proteins of the invention in the same medium, in general in the presence of antibiotics. After 10 minutes of incubation of the cells with increasing quantities of the fusion protein […] (1, 10, 50, 100, 200 nM) and with the protein SCPVU (single chain PvuII without TAT) and SC34 as a control (prepared as described for […] except that the enzyme PvuII contains a mutant in position 34) cell extracts were prepared, separated on SDS-PAGE and assayed by immuno-blot analysis with a monospecific antibody to PvuII. Further, uptake was assayed after 30 min of incubation by immuno-fluorescence analysis using PvuII specific antibodies and nuclear costaining with propidium iodide."}, "ATM, ATR and TOR": {"system": "ATM, ATR and TOR", "conditions": "Sarkaria et al., 1999; target not stated with the value; cited from earlier work"}}}
{"smiles": "OO", "note": "[H2O2]", "values": [{"measurement": "change of G2 phase", "setting": "U2OS cells [1]; 10 μM H2O2 alone", "value": "no increase in G2"}, {"measurement": "interaction with SCPVUTAT on the cell cycle", "setting": "U2OS cells [1]", "value": "synergistic effect"}]}
{"smiles": "NC(=O)NO", "note": "[HU, hydroxyurea, reference compound]", "values": [{"measurement": "p53-Ser15 phosphorylation", "setting": "[2]", "value": "comparable however consistently higher"}, {"measurement": "p53-Ser15 phosphorylation", "setting": "[3]", "value": "comparable however consistently higher"}]}
{"smiles": "CC(=O)O[C@H]1C(=O)[C@@]2(C)[C@H]([C@H](OC(=O)c3ccccc3)[C@]3(O)C[C@H](OC(=O)[C@H](O)[C@@H](NC(=O)c4ccccc4)c4ccccc4)C(C)=C1C3(C)C)[C@]1(OC(C)=O)CO[C@@H]1C[C@@H]2O", "note": "[Taxol, reference compound]", "values": [{"measurement": "cell cycle stop from localisation of Cdc25C and cyclin B", "setting": "HCT116 (p53(+/+)) cells", "value": "stop in M phase"}]}
{"smiles": "COC[C@H]1OC(=O)c2coc3c2[C@@]1(C)C1=C(C3=O)[C@@H]2CCC(=O)[C@@]2(C)C[C@H]1OC(C)=O", "note": "[Wortmanin, reference compound]", "values": [{"measurement": "effect on SCPVUTAT induced histone H2AX Ser139 phosphorylation", "setting": "U2OS cells [4]", "value": "antagonist for this reaction"}]}
{"smiles": "C[C@@]1(CO)[C@H](O)CC[C@@]2(C)[C@H]1CC[C@H]1C[C@@H]3C[C@@]12CC[C@]3(O)CO", "note": "[aphidicolin]", "values": [{"measurement": "interaction with SCPVUTAT on the cell cycle", "setting": "U2OS cells [1]", "value": "no synergistic effect was observed"}]}
{"smiles": "Cn1c(=O)c2c(ncn2C)n(C)c1=O", "note": "[caffeine]", "values": [{"measurement": "influence of caffeine on the transduction capacity of SCPVUTAT", "setting": "[5]", "value": "nor does it influence the transduction capacity"}, {"measurement": "effect of caffeine on the SCPVUTAT cell cycle stop", "setting": "U2OS cells [1]; 100 nM SCPVUTAT in combination with 2 mM caffeine, 30 hours", "value": "antagonist to the effect of SCPVUTAT in vivo"}, {"measurement": "cell cycle effect of caffeine alone", "setting": "U2OS cells [1]; 2 mM caffeine", "value": "moderate delay in the G1 phase"}, {"measurement": "IC50", "setting": "ATM, ATR and TOR", "value": "< 1000", "unit": "µM"}]}
